Source: patent publication US10752640B2, “Compounds active towards bromodomains” (NUEVOLUTION A/S, priority 2014, dated 2020)

Target: BRD4 protein (Homo sapiens, UniProt O60885)
Assay: FRET assay, half maximal inhibitory concentration (IC50)
Assay type: binding
Conditions: BRD4 protein 50 nM, Biotin-H4KAc4 peptide 12.5 nM; A Further List of Classification
In short: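 HTRF: 50 nM BRD4 preincubated 30 min at room temperature with compound (10-fold series from 50 μM in 12.5% DMSO) in 50 mM HEPES pH 7.5, 100 mM NaCl, 0.05% CHAPS. Then 12.5 nM biotin-H4KAc4 peptide for 30 min, and anti-GST XL665 (10 nM) plus streptavidin cryptate (2.4 nM) with 0.4 M KF for 1 h. IC50 by variable-slope fit.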

SMILES	IC50
CCS(=O)(=O)Nc1ccc(N2CCN(C)CC2)c(C(=O)Nc2ccc3nc(O)cc(C)c3c2)c1 [S16, 5-(ethylsulfonylamino)-N-(2-hydroxy-4-methyl-6-quinolyl)-2-(4-methylpiperazin-1-yl)benzamide]	1000 to 10000 nM
Cc1cc(O)nc2ccc(NC(=O)c3cc([N+](=O)[O-])ccc3N3CCOCC3)cc12 [S17, N-(2-hydroxy-4-methyl-6-quinolyl)-2-morpholino-5-nitro-benzamide]	< 200 nM
Cc1cc(O)nc2ccc(NC(=O)c3cc(S(=O)(=O)N4CCCCC4)ccc3N3CCOCC3)cc12 [S19, N-(2-hydroxy-4-methyl-6-quinolyl)-2-morpholino-5-(1-piperidylsulfonyl)benzamide]	< 200 nM
Cc1cc(O)nc2ccc(NC(=O)c3cc(S(=O)(=O)N4CCOCC4)ccc3N3CCOCC3)cc12 [S20, N-(2-hydroxy-4-methyl-6-quinolyl)-2-morpholino-5-morpholinosulfonyl-benzamide]	< 200 nM
Cc1cc(O)nc2ccc(NC(=O)c3cccc(CN4CCNCC4)c3)cc12 [S21, N-(2-hydroxy-4-methyl-6-quinolyl)-3-(piperazin-1-ylmethyl)benzamide]	500 to 1000 nM
Cc1cc(O)nc2ccc(NC(=O)c3cc([N+](=O)[O-])ccc3N(C)C)cc12 [S22, 2-(dimethylamino)-N-(2-hydroxy-4-methyl-6-quinolyl)-5-nitro-benzamide]	200 to 500 nM
CNS(=O)(=O)c1cccc(C(=O)Nc2ccc3nc(O)cc(C)c3c2)c1 [S23, N-(2-hydroxy-4-methyl-6-quinolyl)-3-(methylsulfamoyl)benzamide]	> 10000 nM
Cc1cc(O)nc2ccc(NC(=O)c3cccc(CN4CCCC4=O)c3)cc12 [S24, N-(2-hydroxy-4-methyl-6-quinolyl)-3-[(2-oxopyrrolidin-1-yl)methyl]benzamide, reference compound]	> 10000 nM
Cc1cc(O)nc2ccc(NC(=O)c3cc([N+](=O)[O-])ccc3N3CCCC3)cc12 [S25, N-(2-hydroxy-4-methyl-6-quinolyl)-5-nitro-2-pyrrolidin-1-yl-benzamide]	< 200 nM
Cc1cc(O)nc2ccc(NC(=O)c3cccc(S(=O)(=O)NCC(N)=O)c3)cc12 [S26, 3-[(2-amino-2-oxo-ethyl)sulfamoyl]-N-(2-hydroxy-4-methyl-6-quinolyl)benzamide]	> 10000 nM
Cc1cc(O)nc2ccc(NC(=O)c3cc(S(=O)(=O)N(C)C)ccc3N3CCCC3)cc12 [S27, 5-(dimethylsulfamoyl)-N-(2-hydroxy-4-methyl-6-quinolyl)-2-pyrrolidin-1-yl-benzamide]	< 200 nM
Cc1cc(O)nc2ccc(NC(=O)c3cc(N4CCOCC4)ccc3NS(C)(=O)=O)cc12 [S28, N-(2-hydroxy-4-methyl-6-quinolyl)-2-(methanesulfonamido)-5-morpholino-benzamide]	200 to 500 nM
Cc1cc(O)nc2ccc(NC(=O)c3cccc(N4CCCC4)c3)cc12 [S29, N-(2-hydroxy-4-methyl-6-quinolyl)-3-pyrrolidin-1-yl-benzamide, reference compound]	> 10000 nM
Cc1cc(O)nc2ccc(NC(=O)c3ccc(N)c([N+](=O)[O-])c3)cc12 [S30, 4-amino-N-(2-hydroxy-4-methyl-6-quinolyl)-3-nitro-benzamide, reference compound]	> 10000 nM
NS(=O)(=O)c1ccc(N2CCOCC2)c(C(=O)Nc2ccc3[nH]c(=O)cc(C(F)(F)F)c3c2)c1 [S32, 2-morpholino-N-[2-oxo-4-(trifluoromethyl)-1H-quinolin-6-yl]-5-sulfamoyl-benzamide]	1000 to 10000 nM
Cc1cc(O)nc2ccc(NC(=O)c3cc(S(=O)(=O)N(C)C)ccc3F)cc12 [S33, 5-(dimethylsulfamoyl)-2-fluoro-N-(2-hydroxy-4-methyl-6-quinolyl)benzamide]	> 10000 nM
Cc1cc(O)nc2ccc(NC(=O)c3cc(S(=O)(=O)N4CCOCC4)ccc3Br)cc12 [S34, 2-bromo-N-(2-hydroxy-4-methyl-6-quinolyl)-5-morpholinosulfonyl-benzamide]	> 10000 nM
O=C(Nc1ccc2[nH]c(=O)cc(O)c2c1)c1cc(S(=O)(=O)N2CCOCC2)ccc1N1CCOCC1 [S35, N-(4-hydroxy-2-oxo-1H-quinolin-6-yl)-2-morpholino-5-morpholinosulfonyl-benzamide]	< 200 nM
Cc1cc(O)nc2ccc(NC(=O)c3cccc(S(=O)(=O)N4CCN(C)CC4)c3)cc12 [S36, N-(2-hydroxy-4-methyl-6-quinolyl)-3-(4-methylpiperazin-1-yl)sulfonyl-benzamide]	> 10000 nM

SMILES	IC50
CN(C)S(=O)(=O)c1ccc(N2CCOCC2)c(C(=O)Nc2ccc3[nH]c(=O)[nH]c(=O)c3c2)c1 [S37, 5-(dimethylsulfamoyl)-N-(2,4-dioxo-1H-quinazolin-6-yl)-2-morpholino-benzamide]	> 10000 nM
CN1Cc2cc(NC(=O)c3cc(S(=O)(=O)N(C)C)ccc3N3CCOCC3)ccc2NC1=O [S39, 5-(dimethylsulfamoyl)-N-(3-methyl-2-oxo-1,4-dihydroquinazolin-6-yl)-2-morpholino-benzamide]	< 200 nM
Cc1cc(O)nc2ccc(NC(=O)c3cc(S(=O)(=O)N(C)C)ccc3N3CCC(C)C3)cc12 (centres unmarked) [S41, 5-(dimethylsulfamoyl)-N-(2-hydroxy-4-methyl-6-quinolyl)-2-(3-methylpyrrolidin-1-yl)benzamide]	500 to 1000 nM
Cc1cc(O)nc2ccc(NC(=O)c3cc(S(=O)(=O)N(C)C)ccc3N3CCC(F)C3)cc12 (centres unmarked) [S42, 5-(dimethylsulfamoyl)-2-(3-fluoropyrrolidin-1-yl)-N-(2-hydroxy-4-methyl-6-quinolyl)benzamide]	< 200 nM
COC1CCN(c2ccc(S(=O)(=O)N(C)C)cc2C(=O)Nc2ccc3nc(O)cc(C)c3c2)C1 (centres unmarked) [S43, 5-(dimethylsulfamoyl)-N-(2-hydroxy-4-methyl-6-quinolyl)-2-(3-methoxypyrrolidin-1-yl)benzamide]	500 to 1000 nM
Cc1cc(O)nc2ccc(NC(=O)c3cc(S(=O)(=O)N(C)C)ccc3N3CCC(C(N)=O)C3)cc12 (centres unmarked) [S44, 1-[4-(dimethylsulfamoyl)-2-[(2-hydroxy-4-methyl-6-quinolyl)carbamoyl]phenyl]pyrrolidine-3-carboxamide]	< 200 nM
Cc1cc(O)nc2ccc(NC(=O)c3cc(S(=O)(=O)N(C)C)ccc3N3CCC(N(C)C)C3)cc12 (centres unmarked) [S45, 2-[3-(dimethylamino)pyrrolidin-1-yl]-5-(dimethylsulfamoyl)-N-(2-hydroxy-4-methyl-6-quinolyl)benzamide]	500 to 1000 nM
Cc1cc(O)nc2ccc(NC(=O)c3cc(S(=O)(=O)N(C)C)ccc3N3CCC(CC(C)C)C3)cc12 (centres unmarked) [S46, 5-(dimethylsulfamoyl)-N-(2-hydroxy-4-methyl-6-quinolyl)-2-(3-isobutylpyrrolidin-1-yl)benzamide]	500 to 1000 nM
Cc1cc(O)nc2ccc(NC(=O)c3cc(S(=O)(=O)N(C)C)ccc3N3CCC(CN(C)C)C3)cc12 (centres unmarked) [S47, 2-[3-(dimethylaminomethyl)pyrrolidin-1-yl]-5-(dimethylsulfamoyl)-N-(2-hydroxy-4-methyl-6-quinolyl)benzamide]	< 200 nM
Cc1cc(O)nc2ccc(NC(=O)c3cc(S(=O)(=O)N(C)C)ccc3N3CCC(NC(N)=O)C3)cc12 (centres unmarked) [S48, 5-(dimethylsulfamoyl)-N-(2-hydroxy-4-methyl-6-quinolyl)-2-(3-ureidopyrrolidin-1-yl)benzamide]	< 200 nM
Cc1cc(O)nc2ccc(NC(=O)c3cc(S(=O)(=O)N(C)C)ccc3N3CCC(N4CCCC4)C3)cc12 (centres unmarked) [S49, 5-(dimethylsulfamoyl)-N-(2-hydroxy-4-methyl-6-quinolyl)-2-(3-pyrrolidin-1-ylpyrrolidin-1-yl)benzamide]	500 to 1000 nM
Cc1cc(O)nc2ccc(NC(=O)c3cc(S(=O)(=O)N(C)C)ccc3N3CCC(OCC(N)=O)C3)cc12 (centres unmarked) [S50, 2-[3-(2-amino-2-oxo-ethoxy)pyrrolidin-1-yl]-5-(dimethylsulfamoyl)-N-(2-hydroxy-4-methyl-6-quinolyl)benzamide]	500 to 1000 nM
Cc1cc(O)nc2ccc(NC(=O)c3cc(S(=O)(=O)N(C)C)ccc3N3CCC(c4ccccc4)C3)cc12 (centres unmarked) [S51, 5-(dimethylsulfamoyl)-N-(2-hydroxy-4-methyl-6-quinolyl)-2-(3-phenylpyrrolidin-1-yl)benzamide]	< 200 nM
Cc1cc(O)nc2ccc(NC(=O)c3cc(S(=O)(=O)N(C)C)ccc3N3CCCC3C)cc12 (centres unmarked) [S52, 5-(dimethylsulfamoyl)-N-(2-hydroxy-4-methyl-6-quinolyl)-2-(2-methylpyrrolidin-1-yl)benzamide]	500 to 1000 nM
COCC1CCCN1c1ccc(S(=O)(=O)N(C)C)cc1C(=O)Nc1ccc2nc(O)cc(C)c2c1 (centres unmarked) [S53, 5-(dimethylsulfamoyl)-N-(2-hydroxy-4-methyl-6-quinolyl)-2-[2-(methoxymethyl)pyrrolidin-1-yl]benzamide]	< 200 nM
Cc1cc(O)nc2ccc(NC(=O)c3cc(S(=O)(=O)N(C)C)ccc3N3CCC4CN(C)CC43)cc12 (centres unmarked) [S54, 5-(dimethylsulfamoyl)-N-(2-hydroxy-4-methyl-6-quinolyl)-2-(5-methyl-2,3,3a,4,6,6a-hexahydropyrrolo[3,4-b]pyrrol-1-yl)benzamide]	1000 to 10000 nM
Cc1cc(O)nc2ccc(NC(=O)c3cc(S(=O)(=O)N(C)C)ccc3N3CCCC3CC(C)C)cc12 (centres unmarked) [S55, 5-(dimethylsulfamoyl)-N-(2-hydroxy-4-methyl-6-quinolyl)-2-(2-isobutylpyrrolidin-1-yl)benzamide]	200 to 500 nM
Cc1cc(O)nc2ccc(NC(=O)c3cc(S(=O)(=O)N(C)C)ccc3N3CCCC3CN(C)C)cc12 (centres unmarked) [S56, 2-[2-(dimethylaminomethyl)pyrrolidin-1-yl]-5-(dimethylsulfamoyl)-N-(2-hydroxy-4-methyl-6-quinolyl)benzamide]	< 200 nM
Cc1cc(O)nc2ccc(NC(=O)c3cc(S(=O)(=O)N(C)C)ccc3N3CCCC3C(C)(C)O)cc12 (centres unmarked) [S57, 5-(dimethylsulfamoyl)-2-[2-(1-hydroxy-1-methyl-ethyl)pyrrolidin-1-yl]-N-(2-hydroxy-4-methyl-6-quinolyl)benzamide]	1000 to 10000 nM
